Results on 20 molecules are retold here after PubChem BioAssay AID330 (DTP/NCI, 2004).

“And” between values parts separate entries of the source, which are not always exact repeats. Equal entries are not always repeated. Inconclusive results and toxic doses are left out.

The assay has as its system P388 leukemia ip, CD2F1 mice, survival T/C. Description: NCI In Vivo Anticancer Drug Screen. Data for tumor model P388 Leukemia (intraperitoneal) in CD2F1 (CDF1) mice. The note with it: endpoint: median survival time, higher = longer survival. Summed up: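 Mice carrying the transplanted tumor received test compound or vehicle. Survival was recorded in each group, and the value is the treated-group measurement divided by that of the vehicle-treated control group.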

Setting [1] is: dose: 50.0 mg/kg/injection, schedule: Q01DX005 (ip), vehicle: saline with Tween-80.
[2] abbreviates: dose: 100.0 mg/kg/injection, schedule: Q01DX005 (ip), vehicle: saline with Tween-80.
Setting [3] is: dose: 200.0 mg/kg/injection, schedule: Q01DX005 (ip), vehicle: saline with Tween-80.
Where [4] appears, read: dose: 50.0 mg/kg/injection, schedule: Q01DX005 (ip), vehicle: Klucel (hydroxypropylcellulose) (HPC).
Setting [5] is: dose: 100.0 mg/kg/injection, schedule: Q01DX005 (ip), vehicle: Klucel (hydroxypropylcellulose) (HPC).
Where [6] appears, read: dose: 200.0 mg/kg/injection, schedule: Q01DX005 (ip), vehicle: Klucel (hydroxypropylcellulose) (HPC).
The mark [7] stands for this setting: dose: 50.0 mg/kg/injection, schedule: Q01DX009 (ip), vehicle: saline.
Setting [8] is: dose: 25.0 mg/kg/injection, schedule: Q01DX005 (ip), vehicle: Klucel (hydroxypropylcellulose) (HPC).
The mark [9] stands for this setting: dose: 6.25 mg/kg/injection, schedule: Q04DX003 (ip), vehicle: saline.
[10] abbreviates: dose: 100.0 mg/kg/injection, schedule: Q01DX009 (ip), vehicle: saline with Tween-80.
The mark [11] stands for this setting: dose: 200.0 mg/kg/injection, schedule: Q01DX009 (ip), vehicle: saline with Tween-80.

For the molecule `COC1=NO[C@@H]2C=CO[C@H]12`, the T/C under setting [1] was 105 % of control, the T/C under setting [2] was 100 % of control and the T/C under setting [3] is 93 % of control.
On to `CNc1c2ccccc2nc2ccccc12`, for which the T/C is 98 % of control (dose: 12.5 mg/kg/injection, schedule: Q04DX002 (ip), vehicle: distilled water + Tween-80) and 100 % of control (dose: 25.0 mg/kg/injection, schedule: Q04DX002 (ip), vehicle: distilled water + Tween-80).
Turning to `CCOC(=O)c1ccc(NC(=O)Nc2scc[n+]2C)cc1`, the T/C is 93 % of control (dose: 12.5 mg/kg/injection, schedule: Q01DX009 (ip), vehicle: distilled water + Tween-80); 102 % of control (dose: 25.0 mg/kg/injection, schedule: Q01DX009 (ip), vehicle: distilled water + Tween-80); 108 % of control (dose: 50.0 mg/kg/injection, schedule: Q01DX009 (ip), vehicle: distilled water + Tween-80); 100 % of control (dose: 100.0 mg/kg/injection, schedule: Q01DX009 (ip), vehicle: distilled water + Tween-80); 90 % of control (dose: 200.0 mg/kg/injection, schedule: Q01DX009 (ip), vehicle: distilled water + Tween-80).
For `CC(=O)OCC1OC(n2cnc3c(Cl)nc(Cl)nc32)CC(OC(C)=O)C1OC(C)=O` (stereo not given), the T/C reads like this: under setting [4], 93 % of control; under setting [5], 99 % of control; under setting [6], 91 % of control.
For `OC1CCC2CC2C1` (stereo not given), the T/C was 108 % of control under setting [7]; 102 % of control (dose: 100.0 mg/kg/injection, schedule: Q01DX009 (ip), vehicle: saline); 108 % of control (dose: 200.0 mg/kg/injection, schedule: Q01DX009 (ip), vehicle: saline).
As to `COc1ccc2nc(C)c3c(c2c1)C(=O)N(CCCN1CCN(CCCN2C(=O)c4c(C)nc5ccc(OC)cc5c4C2=O)CC1)C3=O`, the T/C was 93 % of control (dose: 6.25 mg/kg/injection, schedule: Q01DX005 (ip), vehicle: Klucel (hydroxypropylcellulose) (HPC)); 90 % of control (dose: 12.5 mg/kg/injection, schedule: Q01DX005 (ip), vehicle: Klucel (hydroxypropylcellulose) (HPC)); 96 % of control under setting [8].
As for `CN(C)C(=S)N1C(=O)C2C3CCC(O3)C2C1=O` (stereo not given), the T/C runs as follows: (dose: 1.87 mg/kg/injection, schedule: Q01DX005 (ip), vehicle: saline with Tween-80) 102 % of control; (dose: 3.75 mg/kg/injection, schedule: Q01DX005 (ip), vehicle: saline with Tween-80) 100 % of control; (dose: 7.5 mg/kg/injection, schedule: Q01DX005 (ip), vehicle: saline with Tween-80) 99 % of control and 98 % of control.
Turning to `O/N=C(/Cc1nc2cc(Cl)c(Cl)cc2nc1C/C(=N/O)c1cccnc1)c1cccnc1`, the T/C is, setting by setting: (dose: 60.0 mg/kg/injection, schedule: Q01DX005 (ip), vehicle: saline with Tween-80) 102 % of control; (dose: 120.0 mg/kg/injection, schedule: Q01DX005 (ip), vehicle: saline with Tween-80) 107 % of control; (dose: 240.0 mg/kg/injection, schedule: Q01DX005 (ip), vehicle: saline with Tween-80) 107 % of control.
Consider `N=C(N)c1ccc(/C=C/c2cc3ccc(C(=N)N)cc3[nH]2)cc1`, for which, under setting [9], the T/C was 113 % of control.
With `COc1cccc2c1C(=O)c1c(O)c3c(c(O)c1C2=O)CC(O)(C(O)CO)CC3OC1CC(N2CCSCC2)C(O)C(C)O1` (stereo not given), the T/C by setting is: (dose: 3.12 mg/kg/injection, schedule: Q04DX003 (ip), vehicle: saline) 103 % of control; under setting [9], 110 % of control; (dose: 12.5 mg/kg/injection, schedule: Q04DX003 (ip), vehicle: saline) 110 % of control and 112 % of control; (dose: 25.0 mg/kg/injection, schedule: Q04DX003 (ip), vehicle: saline) 122 % of control; (dose: 100.0 mg/kg/injection, schedule: Q04DX003 (ip), vehicle: saline) 122 % of control.
Consider `O=C1C(c2ccccn2)=C(O)c2ccccc21`, for which the T/C is, setting by setting: under setting [4], 104 % of control; under setting [5], 93 % of control; under setting [6], 97 % of control.
As to `CN(C)CC(CN(C)C)C(=O)C(C)(C)C`, the T/C by setting is: (dose: 3.8 mg/kg/injection, schedule: Q01DX005 (ip), vehicle: saline) 99 % of control; (dose: 7.5 mg/kg/injection, schedule: Q01DX005 (ip), vehicle: saline) 96 % of control; (dose: 15.0 mg/kg/injection, schedule: Q01DX005 (ip), vehicle: saline) 93 % of control; (dose: 30.0 mg/kg/injection, schedule: Q01DX005 (ip), vehicle: saline) 105 % of control; (dose: 60.0 mg/kg/injection, schedule: Q01DX005 (ip), vehicle: saline) 100 % of control and 104 % of control; (dose: 120.0 mg/kg/injection, schedule: Q01DX005 (ip), vehicle: saline) 104 % of control and 110 % of control.
With `COc1c(CCl)c2c(c(OC)c1OC)COC2=O`, the T/C reads like this: (dose: 50.0 mg/kg/injection, schedule: Q01DX009 (ip), vehicle: saline with Tween-80) 100 % of control; under setting [10], 90 % of control; under setting [11], 116 % of control.
Regarding `NOCc1cccc(C(F)(F)F)c1`, the T/C is 87 % of control (dose: 75.0 mg/kg/injection, schedule: Q01DX009 (ip), vehicle: saline with Tween-80); 91 % of control (dose: 150.0 mg/kg/injection, schedule: Q01DX009 (ip), vehicle: saline with Tween-80); 91 % of control (dose: 300.0 mg/kg/injection, schedule: Q01DX009 (ip), vehicle: saline with Tween-80).
In the case of `Clc1cccc2nc(-c3ccccn3)n(CCc3ccncc3)c12`, the T/C reads like this: under setting [8], 95 % of control; under setting [4], 95 % of control; under setting [5], 95 % of control; under setting [6], 93 % of control.
Turning to `Nc1nc(SCc2ccccc2)c2ncn(CCCl)c2n1`, the T/C is, setting by setting: (dose: 0.78 mg/kg/injection, schedule: Q01DX009 (ip), vehicle: saline) 97 % of control; (dose: 1.56 mg/kg/injection, schedule: Q01DX009 (ip), vehicle: saline) 101 % of control; (dose: 3.12 mg/kg/injection, schedule: Q01DX009 (ip), vehicle: saline) 105 % of control; (dose: 6.25 mg/kg/injection, schedule: Q01DX009 (ip), vehicle: saline) 102 % of control and 95 % of control; (dose: 6.25 mg/kg/injection, schedule: Q01DX009 (ip), vehicle: suspension in saline) 103 % of control; (dose: 25.0 mg/kg/injection, schedule: Q01DX009 (ip), vehicle: saline) 100 % of control. The T/C by setting is: under setting [7], 111 % of control; (dose: 50.0 mg/kg/injection, schedule: Q01DX009 (ip), vehicle: suspension in saline) 94 % of control.
Turning to `COc1ccc2c(NCCCCCCCCNc3c4ccccc4nc4cc(OC)ccc34)c3ccccc3nc2c1`, the T/C (dose: 0.62 mg/kg/injection, schedule: Q01DX009 (ip), vehicle: other) is 176 % of control; the T/C (dose: 3.75 mg/kg/injection, schedule: Q01DX009 (ip), vehicle: other) is 157 % of control; the T/C (dose: 7.5 mg/kg/injection, schedule: Q01DX009 (ip), vehicle: other) was 100 % of control.
As to `COc1cc(O)c(C(C)c2ccccc2)cc1N=O` (stereo not given), the T/C under setting [1] was 92 % of control, the T/C under setting [2] is 87 % of control and the T/C under setting [3] is 92 % of control.
As for `C=CC1C(OC2OC(CO)C(O)C(O)C2O)OC=C(C(=O)OC)C1CC1CC(=O)CC(CCc2ccc(O)cc2)O1` (stereo not given), the T/C is, setting by setting: (dose: 8.0 mg/kg/injection, schedule: Q01DX005 (ip), vehicle: distilled water + Tween-80) 96 % of control; (dose: 16.0 mg/kg/injection, schedule: Q01DX005 (ip), vehicle: distilled water + Tween-80) 99 % of control; (dose: 25.0 mg/kg/injection, schedule: Q01DX005 (ip), vehicle: water) 100 % of control; (dose: 32.0 mg/kg/injection, schedule: Q01DX005 (ip), vehicle: distilled water + Tween-80) 91 % of control; (dose: 50.0 mg/kg/injection, schedule: Q01DX005 (ip), vehicle: water) 99 % of control; (dose: 64.0 mg/kg/injection, schedule: Q01DX005 (ip), vehicle: distilled water + Tween-80) 90 % of control. The T/C reads like this: (dose: 100.0 mg/kg/injection, schedule: Q01DX005 (ip), vehicle: water) 96 % of control; (dose: 200.0 mg/kg/injection, schedule: Q01DX005 (ip), vehicle: water) 99 % of control.
In the case of `C=C(C)C1Cc2c(ccc3c2OC2COc4cc(OC)c(OC)cc4C2C3=O)O1` (stereo not given), the T/C reads like this: under setting [10], 86 % of control; under setting [11], 95 % of control; (dose: 400.0 mg/kg/injection, schedule: Q01DX009 (ip), vehicle: saline with Tween-80) 95 % of control.
